This is an account of results in ChEMBL document CHEMBL1201862, “PubChem BioAssay data set” (2004).

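Compound exposure: 48 hours, 5 concentrations, 96-well plates. The concentration for 50% growth inhibition is given as GI50.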 Calls of active or inactive are those of the source. Cut-off read from the data, not from the text of the source: active = GI50 up to about 1.1 µM and inactive = higher.

Among the test systems are HCC 2998; COLO 205; SW-620; OVCAR-3; SR; SK-MEL-2; SF-268; M14; SK-OV-3; NCI-H226; NCI-H460; SF-539; HL-60; K562; HCT-15; RXF 393; HOP-92; MOLT-4; TK-10; Malme-3M.
What all share (experiment): NCI tumour cell line growth inhibition, 48 h

With `Oc1ccc(-c2nc3ccc4ccccc4c3c3c2CCCC3)c(O)c1`, the GI50 in the experiment on HCC 2998 was 36.5 µM (inactive); in the experiment with COLO 205, 11.1 µM (inactive); with SW-620 it was 20.4 µM (inactive); in the experiment on OVCAR-3, 24.4 µM (inactive); in the experiment on SR, 20.2 µM (inactive); with SK-MEL-2, 9.08 µM (inactive). Besides, the GI50 was 22.2 µM (inactive) in the experiment with SF-268; 15.2 µM (inactive) in the experiment on M14; 48.6 µM (inactive) in the experiment with SK-OV-3; > 63 µM (inactive) in the experiment with NCI-H226; 19.6 µM (inactive) in the experiment on NCI-H460; 42.3 µM (inactive) with SF-539. In addition, the GI50 in the experiment on HL-60 is 2.55 µM (inactive); in the experiment on K562 it was > 100 µM (inactive); in the experiment with HCT-15, 26.5 µM; in the experiment on RXF 393 it was 34.9 µM (inactive); in the experiment on HOP-92, 24.7 µM (inactive); in the experiment with MOLT-4, > 48.3 µM (inactive). Also, the results for the GI50 in the experiment on TK-10 and with Malme-3M were 37.1 µM (inactive) and 19.4 µM (inactive), respectively.
For `COc1ccc2c(c1)c(=O)c1ccccc1n2/C=C/C(=O)O`, the GI50 was > 100 µM (inactive) with HCC 2998; > 56.8 µM (inactive) in the experiment on COLO 205; > 100 µM (inactive) in the experiment on SW-620; > 100 µM (inactive) in the experiment with OVCAR-3; > 41.7 µM (inactive) with SR; > 100 µM (inactive) in the experiment on SK-MEL-2. Moreover, the GI50 is > 68.2 µM (inactive) in the experiment with SF-268; > 100 µM (inactive) in the experiment with M14; > 100 µM (inactive) in the experiment with SK-OV-3; > 100 µM (inactive) in the experiment with NCI-H226; > 100 µM (inactive) in the experiment with NCI-H460; > 100 µM (inactive) in the experiment on SF-539. Besides, the GI50 in the experiment with HL-60 is > 46.8 µM (inactive); in the experiment with K562 it was > 100 µM (inactive); with HCT-15, greater than 100 µM; in the experiment on RXF 393, > 79.4 µM (inactive); in the experiment with HOP-92, > 100 µM (inactive); in the experiment on MOLT-4, > 100 µM (inactive). The GI50 with TK-10 and in the experiment with Malme-3M was > 100 µM (inactive) in each case.
Regarding `CCn1c(SCC(=O)N/N=C/c2ccccc2)nc2ccccc2c1=O`, the GI50 was 5.22 µM (inactive) with HCC 2998; 8.34 µM (inactive) in the experiment with COLO 205; 1.99 µM (inactive) in the experiment with SW-620; 10 µM (inactive) with OVCAR-3; 0.478 µM (active) in the experiment with SR; 11.7 µM (inactive) in the experiment with SK-MEL-2. The GI50 in the experiment on SF-268 is 15.8 µM (inactive); in the experiment with M14, 7.16 µM (inactive); with SK-OV-3, 17.8 µM (inactive); in the experiment with NCI-H226 it was 10.8 µM (inactive); in the experiment with NCI-H460, 2.13 µM (inactive); with SF-539, 10.4 µM (inactive). Also, the GI50 is 4.8 µM (inactive) in the experiment with HL-60; 1.87 µM (inactive) in the experiment with K562; 3.87 µM with HCT-15; 7.19 µM (inactive) in the experiment with RXF 393; 26.9 µM (inactive) in the experiment with HOP-92; 5.14 µM (inactive) in the experiment on MOLT-4. Also, the GI50 is > 55.1 µM (inactive) with TK-10 and 12.5 µM (inactive) with Malme-3M.
In the case of `COc1cccc(/C=C/C(=O)c2sc(C(N)=S)nc2C)c1O`, the GI50 with HCC 2998 was 75.5 µM (inactive); in the experiment with COLO 205, > 68.2 µM (inactive); in the experiment on SW-620, 21.2 µM (inactive); in the experiment with OVCAR-3 it was > 60.3 µM (inactive); in the experiment on SR, 12.5 µM (inactive); with SK-MEL-2 it was > 100 µM (inactive). Besides, the GI50 was > 86.3 µM (inactive) in the experiment with SF-268; > 77.4 µM (inactive) with M14; > 100 µM (inactive) in the experiment with SK-OV-3; > 100 µM (inactive) in the experiment with NCI-H226; > 76.4 µM (inactive) with NCI-H460; 52.7 µM (inactive) in the experiment with SF-539. Besides, the GI50 in the experiment on HL-60 is 22.2 µM (inactive); in the experiment with K562, 42.4 µM (inactive); in the experiment on HCT-15, 26.1 µM; in the experiment with RXF 393, > 74.3 µM (inactive); in the experiment on HOP-92, > 100 µM (inactive); in the experiment on MOLT-4, 25.1 µM (inactive). Further, the GI50 with TK-10 and with Malme-3M was > 100 µM (inactive) throughout.
In the case of `CC1OC(n2cc(F)c(=O)[nH]c2=O)CCC1O` (stereo not given), the GI50 is 30.1 µM (inactive) in the experiment with HCC 2998; > 87.1 µM (inactive) with COLO 205; > 100 µM (inactive) in the experiment with SW-620; > 100 µM (inactive) with OVCAR-3; > 94 µM (inactive) in the experiment with SR; > 100 µM (inactive) in the experiment with SK-MEL-2. Besides, the GI50 in the experiment with SF-268 is > 100 µM (inactive); in the experiment with M14, > 91.4 µM (inactive); with SK-OV-3 it was > 100 µM (inactive); with NCI-H226, > 100 µM (inactive); in the experiment with NCI-H460, 50.8 µM (inactive); with SF-539, 29.2 µM (inactive). Further, the GI50 was > 79.4 µM (inactive) in the experiment on HL-60; > 100 µM (inactive) in the experiment with K562; greater than 94.4 µM in the experiment with HCT-15; > 79.6 µM (inactive) in the experiment on RXF 393; > 100 µM (inactive) in the experiment on HOP-92; > 100 µM (inactive) with MOLT-4. Also, the figures for the GI50 in the experiment on TK-10 and in the experiment on Malme-3M were > 100 µM (inactive) and 99.8 µM (inactive), respectively.
For `COc1ccc(/C=c2/s/c(=C(\C#N)c3nc4ccccc4[nH]3)n(-c3ccccc3)c2=O)cc1`, the GI50 with HCC 2998 is > 82.8 µM (inactive); in the experiment with COLO 205, 36.2 µM (inactive); in the experiment with SW-620, 25.2 µM (inactive); in the experiment on OVCAR-3, 26.8 µM (inactive); in the experiment with SR, > 100 µM (inactive); in the experiment on SK-MEL-2 it was > 77.6 µM (inactive). The GI50 is 31.7 µM (inactive) in the experiment on SF-268; > 56.9 µM (inactive) in the experiment with M14; 2.96 µM (inactive) with SK-OV-3; 16.9 µM (inactive) in the experiment on NCI-H226; 9.75 µM (inactive) in the experiment with NCI-H460; 25.1 µM (inactive) in the experiment on SF-539. Besides, the GI50 is > 100 µM (inactive) with HL-60; > 100 µM (inactive) in the experiment with K562; greater than 53.6 µM in the experiment with HCT-15; 36 µM (inactive) with RXF 393; 12.6 µM (inactive) in the experiment with HOP-92; 53.6 µM (inactive) in the experiment with MOLT-4. In addition, the GI50 in the experiment with TK-10 was > 52.7 µM (inactive); in the experiment on Malme-3M, > 42.4 µM (inactive).
As to `CC(=O)N(C)SCC(NC(=O)C(Cc1ccccc1)NC(=O)OCc1ccccc1)C(=O)NC(Cc1ccccc1)C(=O)NC(Cc1cn(C=O)c2ccccc12)C(=O)NC(CCCCNC(=O)OCc1ccccc1)C(=O)NC(C(=O)NC(CSN(C)C(C)=O)C(=O)NO)C(C)OCc1ccccc1` (stereo not given), the GI50 with HCC 2998, with COLO 205, with SW-620, with OVCAR-3, in the experiment on SR and with SK-MEL-2 was > 100 µM (inactive) throughout. Besides, the GI50 with SF-268, in the experiment on M14, in the experiment on SK-OV-3, in the experiment on NCI-H226, in the experiment with NCI-H460 and in the experiment with SF-539 was > 100 µM (inactive) in each case. The GI50 in the experiment on HL-60 was > 100 µM (inactive); in the experiment with K562, > 100 µM (inactive); in the experiment with HCT-15 it was greater than 100 µM; in the experiment with RXF 393, > 100 µM (inactive); in the experiment with HOP-92, > 100 µM (inactive); in the experiment with MOLT-4, > 100 µM (inactive). Further, the GI50 in the experiment on TK-10 and with Malme-3M was > 100 µM (inactive) throughout.
As for `C/C(CC(O)(C(F)(F)F)C(F)(F)F)=N/Nc1ccc([N+](=O)[O-])cc1[N+](=O)[O-]`, the GI50 is 3.6 µM (inactive) in the experiment with HCC 2998; 2.05 µM (inactive) in the experiment with COLO 205; 3.44 µM (inactive) in the experiment on SW-620; 1.96 µM (inactive) in the experiment on OVCAR-3; 4.9 µM (inactive) in the experiment on SR; 2.28 µM (inactive) in the experiment on SK-MEL-2. For the same compound, the GI50 with SF-268 was 2.81 µM (inactive); in the experiment with M14, 3.61 µM (inactive); with SK-OV-3 it was 2.33 µM (inactive); in the experiment on NCI-H226, 2.06 µM (inactive); in the experiment on NCI-H460, 3.11 µM (inactive); with SF-539, 3.78 µM (inactive). In addition, the GI50 in the experiment on HL-60 was 2.94 µM (inactive); in the experiment on K562, 2.44 µM (inactive); with HCT-15, 2.85 µM; in the experiment on RXF 393, 2.12 µM (inactive); in the experiment with HOP-92, 1.8 µM (inactive); in the experiment on MOLT-4, 4.4 µM (inactive). Moreover, the GI50 in the experiment on TK-10 is 3.56 µM (inactive); with Malme-3M, 2.11 µM (inactive).
For `CC(CO)(CO)N1C(=O)C2C3C=CC(C3)C2C1=O` (stereo not given), the GI50 in the experiment on HCC 2998, with COLO 205, in the experiment with SW-620, with OVCAR-3, with SR and in the experiment on SK-MEL-2 was > 100 µM (inactive) each time. The GI50 in the experiment with SF-268, in the experiment on M14, in the experiment with SK-OV-3, with NCI-H226, with NCI-H460 and with SF-539 was > 100 µM (inactive) in each case. Further, the GI50 in the experiment with HL-60 is > 100 µM (inactive); with K562, > 100 µM (inactive); in the experiment with HCT-15, greater than 100 µM; in the experiment on RXF 393, 52.1 µM (inactive); in the experiment with HOP-92, > 100 µM (inactive); with MOLT-4, > 100 µM (inactive). Further, the GI50 in the experiment with TK-10 and in the experiment with Malme-3M was > 100 µM (inactive) throughout.
As for `CC(SC1=CC(=O)c2c(O)ccc(O)c2C1=O)C(=O)O` (stereo not given), the GI50 in the experiment on HCC 2998 was > 73.8 µM (inactive); with COLO 205 it was 22.5 µM (inactive); with SW-620, > 40.8 µM (inactive); in the experiment on OVCAR-3 it was 21.4 µM (inactive); in the experiment with SR, > 52.8 µM (inactive); with SK-MEL-2, > 100 µM (inactive). Besides, the GI50 is 48 µM (inactive) with SF-268; 32.1 µM (inactive) with M14; > 100 µM (inactive) with SK-OV-3; > 58.5 µM (inactive) in the experiment with NCI-H226; > 100 µM (inactive) with NCI-H460; > 68.5 µM (inactive) with SF-539. For the same compound, the GI50 is 13.6 µM (inactive) in the experiment with HL-60; 13.8 µM (inactive) in the experiment on K562; greater than 37 µM with HCT-15; > 48.4 µM (inactive) in the experiment on RXF 393; > 58.5 µM (inactive) in the experiment with HOP-92; 7.48 µM (inactive) in the experiment on MOLT-4. For the same compound, the GI50 in the experiment with TK-10 was > 51.5 µM (inactive); in the experiment with Malme-3M, > 44.5 µM (inactive).
